Data taken from the kinase profiling compilation of Christmann-Franck et al. (2016).

Experiments:
Experiment in all cases: radiometric filter-binding kinase assay
[1] = system: SRC (chicken); details: compound 1.0 µM, ATP 50 µM
[2] = target: MAPK12 (human) (UniProt P53778); details: compound 1.0 µM; ATP 5 µM
[3] = target: CSNK1D (human) (UniProt P48730); details: compound 1.0 µM
[4] = target: PIM1 (human) (UniProt P11309); details: compound 1.0 µM; ATP 20 µM
[5] = target: PHKG1 or PHKG2 (human) (UniProt P15735+Q16816); details: compound 1.0 µM; ATP 50 µM
[6] = target: RPS6KA5 KD1 KD2 (human) (UniProt O75582); details: compound 1.0 µM; ATP 20 µM
[7] = target: NEK6 (human) (UniProt Q9HC98); details: compound 1.0 µM; ATP 50 µM
Sequence of NEK6 (human) (Q9HC98 whole entry, looked up): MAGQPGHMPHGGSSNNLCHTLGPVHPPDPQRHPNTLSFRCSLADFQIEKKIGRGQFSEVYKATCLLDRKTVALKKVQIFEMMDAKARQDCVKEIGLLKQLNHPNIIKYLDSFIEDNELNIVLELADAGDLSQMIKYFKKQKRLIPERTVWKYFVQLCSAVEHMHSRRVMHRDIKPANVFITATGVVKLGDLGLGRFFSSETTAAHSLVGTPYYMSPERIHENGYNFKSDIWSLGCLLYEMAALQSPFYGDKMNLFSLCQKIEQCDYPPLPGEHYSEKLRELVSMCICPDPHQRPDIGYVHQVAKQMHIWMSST

[8] = target: NEK2 (human) (UniProt P51955); details: compound 1.0 µM; ATP 50 µM
[9] = target: PLK1 (human) (UniProt P53350); details: compound 1.0 µM; ATP 5 µM
Sequence of PLK1 (human) (P53350 whole entry, looked up): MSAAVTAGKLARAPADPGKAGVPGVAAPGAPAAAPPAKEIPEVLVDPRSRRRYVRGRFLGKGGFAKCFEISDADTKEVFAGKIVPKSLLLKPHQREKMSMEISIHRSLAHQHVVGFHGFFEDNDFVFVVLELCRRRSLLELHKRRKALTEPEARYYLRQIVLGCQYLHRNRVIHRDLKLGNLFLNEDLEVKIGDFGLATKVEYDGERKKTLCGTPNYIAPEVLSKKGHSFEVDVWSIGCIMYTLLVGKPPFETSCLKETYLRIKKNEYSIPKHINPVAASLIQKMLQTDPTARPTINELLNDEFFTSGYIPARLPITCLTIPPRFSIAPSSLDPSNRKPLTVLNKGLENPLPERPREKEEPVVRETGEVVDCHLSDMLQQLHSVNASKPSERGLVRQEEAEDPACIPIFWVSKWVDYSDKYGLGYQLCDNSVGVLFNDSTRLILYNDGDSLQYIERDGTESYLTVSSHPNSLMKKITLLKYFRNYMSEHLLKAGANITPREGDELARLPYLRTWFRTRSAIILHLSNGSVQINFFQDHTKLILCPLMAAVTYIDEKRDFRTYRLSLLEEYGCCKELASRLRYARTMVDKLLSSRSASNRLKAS

[10] = target: BRSK2 (human) (UniProt Q8IWQ3); details: compound 1.0 µM; ATP 50 µM
Sequence of BRSK2 (human) (Q8IWQ3 whole entry, looked up): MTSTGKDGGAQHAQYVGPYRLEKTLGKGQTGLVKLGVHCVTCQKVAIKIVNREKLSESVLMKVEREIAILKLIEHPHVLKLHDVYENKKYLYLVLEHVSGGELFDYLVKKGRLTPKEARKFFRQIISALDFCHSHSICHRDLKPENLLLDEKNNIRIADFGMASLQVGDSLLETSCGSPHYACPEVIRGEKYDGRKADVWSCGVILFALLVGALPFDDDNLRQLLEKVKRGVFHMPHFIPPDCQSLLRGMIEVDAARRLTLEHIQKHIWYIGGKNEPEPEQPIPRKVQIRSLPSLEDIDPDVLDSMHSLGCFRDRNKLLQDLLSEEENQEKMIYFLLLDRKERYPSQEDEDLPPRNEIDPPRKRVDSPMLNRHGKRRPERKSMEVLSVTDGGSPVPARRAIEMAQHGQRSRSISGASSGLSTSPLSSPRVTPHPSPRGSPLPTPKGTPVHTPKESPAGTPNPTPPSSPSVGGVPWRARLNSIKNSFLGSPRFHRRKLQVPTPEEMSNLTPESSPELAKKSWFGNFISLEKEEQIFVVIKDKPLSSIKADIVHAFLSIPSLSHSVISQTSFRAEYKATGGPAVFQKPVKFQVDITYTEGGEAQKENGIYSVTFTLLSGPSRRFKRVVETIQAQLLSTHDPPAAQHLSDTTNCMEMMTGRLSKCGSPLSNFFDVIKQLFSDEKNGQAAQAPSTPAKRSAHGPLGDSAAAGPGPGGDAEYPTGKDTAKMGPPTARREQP

[11] = target: CHEK1 (human) (UniProt O14757); details: compound 1.0 µM; ATP 20 µM
[12] = target: AURKC (human) (UniProt Q9UQB9); details: compound 1.0 µM; ATP 5 µM
[13] = target: HIPK3 (human) (UniProt Q9H422); details: compound 1.0 µM; ATP 20 µM
Sequence of HIPK3 (human) (Q9H422 whole entry, looked up): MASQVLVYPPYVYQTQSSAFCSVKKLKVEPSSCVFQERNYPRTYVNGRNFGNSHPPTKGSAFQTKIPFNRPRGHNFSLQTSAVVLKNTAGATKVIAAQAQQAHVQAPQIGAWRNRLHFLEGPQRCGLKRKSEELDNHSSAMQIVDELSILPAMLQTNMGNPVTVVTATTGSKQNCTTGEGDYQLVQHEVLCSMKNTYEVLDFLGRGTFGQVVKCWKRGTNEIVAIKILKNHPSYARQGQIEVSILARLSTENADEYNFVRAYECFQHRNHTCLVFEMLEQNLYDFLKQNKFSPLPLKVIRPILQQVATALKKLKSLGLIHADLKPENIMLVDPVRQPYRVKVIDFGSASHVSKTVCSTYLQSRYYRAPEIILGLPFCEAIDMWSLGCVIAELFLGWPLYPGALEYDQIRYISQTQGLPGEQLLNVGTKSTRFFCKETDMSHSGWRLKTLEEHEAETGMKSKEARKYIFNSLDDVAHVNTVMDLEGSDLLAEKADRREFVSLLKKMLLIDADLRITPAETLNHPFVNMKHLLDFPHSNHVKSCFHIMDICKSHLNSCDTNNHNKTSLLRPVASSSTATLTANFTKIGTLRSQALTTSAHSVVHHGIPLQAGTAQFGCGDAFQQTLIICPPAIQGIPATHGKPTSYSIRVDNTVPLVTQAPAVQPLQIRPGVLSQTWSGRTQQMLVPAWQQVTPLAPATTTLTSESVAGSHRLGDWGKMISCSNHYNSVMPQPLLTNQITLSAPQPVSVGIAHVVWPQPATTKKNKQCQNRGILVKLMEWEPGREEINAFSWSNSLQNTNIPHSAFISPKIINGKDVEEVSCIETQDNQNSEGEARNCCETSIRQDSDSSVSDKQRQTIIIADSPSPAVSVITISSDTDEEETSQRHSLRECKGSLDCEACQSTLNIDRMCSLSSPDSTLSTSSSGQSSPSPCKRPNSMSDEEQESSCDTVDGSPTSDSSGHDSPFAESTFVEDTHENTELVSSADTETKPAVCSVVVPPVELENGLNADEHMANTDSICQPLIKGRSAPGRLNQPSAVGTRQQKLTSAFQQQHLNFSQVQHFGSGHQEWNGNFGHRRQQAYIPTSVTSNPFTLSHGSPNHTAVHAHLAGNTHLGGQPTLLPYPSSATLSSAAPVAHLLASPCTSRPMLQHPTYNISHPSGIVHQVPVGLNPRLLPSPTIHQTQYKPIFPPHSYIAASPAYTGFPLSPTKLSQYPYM

[14] = target: DYRK1A (human) (UniProt Q13627); details: compound 1.0 µM; ATP 50 µM
[15] = system: PRKAA1 or PRKAA2 (rat); details: compound 1.0 µM
[16] = target: PAK6 (human) (UniProt Q9NQU5); details: compound 1.0 µM; ATP 20 µM
[17] = target: MAPK11 (human) (UniProt Q15759); details: compound 1.0 µM; ATP 20 µM
Sequence of MAPK11 (human) (Q15759 whole entry, looked up): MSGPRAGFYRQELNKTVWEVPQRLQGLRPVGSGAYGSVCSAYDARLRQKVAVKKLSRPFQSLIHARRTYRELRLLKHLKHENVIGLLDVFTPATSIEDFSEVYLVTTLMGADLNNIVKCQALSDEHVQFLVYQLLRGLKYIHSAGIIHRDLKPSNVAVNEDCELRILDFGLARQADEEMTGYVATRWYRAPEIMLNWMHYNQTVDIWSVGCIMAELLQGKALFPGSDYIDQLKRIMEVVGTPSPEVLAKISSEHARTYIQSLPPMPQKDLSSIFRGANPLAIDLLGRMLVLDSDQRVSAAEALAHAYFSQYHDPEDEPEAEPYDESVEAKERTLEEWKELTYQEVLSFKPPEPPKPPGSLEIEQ

[18] = target: EEF2K (human) (UniProt O00418); details: compound 1.0 µM
[19] = target: RPS6KA1 KD1 KD2 (human) (UniProt Q15418); details: compound 1.0 µM; ATP 50 µM
[20] = target: AKT2 (human) (UniProt P31751); details: compound 1.0 µM; ATP 50 µM
[21] = target: MAPK15 (human) (UniProt Q8TD08); details: compound 1.0 µM; ATP 5 µM
Sequence of MAPK15 (human) (Q8TD08 whole entry, looked up): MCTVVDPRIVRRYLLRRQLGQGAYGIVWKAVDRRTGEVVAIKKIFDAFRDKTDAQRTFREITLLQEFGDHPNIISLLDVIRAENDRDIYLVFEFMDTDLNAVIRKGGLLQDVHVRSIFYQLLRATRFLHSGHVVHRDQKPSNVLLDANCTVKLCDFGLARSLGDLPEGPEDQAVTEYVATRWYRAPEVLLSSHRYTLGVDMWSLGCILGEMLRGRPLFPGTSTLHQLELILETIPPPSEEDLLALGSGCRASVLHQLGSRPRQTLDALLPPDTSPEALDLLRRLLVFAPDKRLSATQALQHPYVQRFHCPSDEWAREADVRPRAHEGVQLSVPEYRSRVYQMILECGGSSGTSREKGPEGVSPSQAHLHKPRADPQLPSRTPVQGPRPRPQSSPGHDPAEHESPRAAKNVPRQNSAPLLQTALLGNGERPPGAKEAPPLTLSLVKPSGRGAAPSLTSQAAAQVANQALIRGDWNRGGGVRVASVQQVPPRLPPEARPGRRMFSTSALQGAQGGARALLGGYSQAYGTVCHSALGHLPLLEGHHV

[22] = target: STK3 (human) (UniProt Q13188); details: compound 1.0 µM; ATP 20 µM
[23] = system: LCK (mouse); details: compound 1.0 µM, ATP 50 µM
[24] = target: MKNK2 (human) (UniProt Q9HBH9); details: compound 1.0 µM; ATP 50 µM
Sequence of MKNK2 (human) (Q9HBH9 whole entry, looked up): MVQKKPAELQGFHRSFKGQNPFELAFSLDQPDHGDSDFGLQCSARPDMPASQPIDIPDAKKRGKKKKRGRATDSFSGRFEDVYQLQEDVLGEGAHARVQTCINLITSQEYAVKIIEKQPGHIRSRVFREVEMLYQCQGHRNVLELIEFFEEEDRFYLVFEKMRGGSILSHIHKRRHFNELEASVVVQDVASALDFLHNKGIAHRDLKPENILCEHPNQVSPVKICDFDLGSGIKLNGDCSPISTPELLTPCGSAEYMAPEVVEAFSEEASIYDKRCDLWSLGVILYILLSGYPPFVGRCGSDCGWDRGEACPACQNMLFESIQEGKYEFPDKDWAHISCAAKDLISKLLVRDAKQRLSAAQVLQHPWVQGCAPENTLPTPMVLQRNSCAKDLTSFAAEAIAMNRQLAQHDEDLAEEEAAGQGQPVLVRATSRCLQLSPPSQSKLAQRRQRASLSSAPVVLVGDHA

[25] = target: MYLK (human) (UniProt Q15746); details: compound 1.0 µM
[26] = target: MAPKAPK2 (human) (UniProt P49137); details: compound 1.0 µM; ATP 20 µM
[27] = target: RPS6KA3 KD1 KD2 (human) (UniProt P51812); details: compound 1.0 µM; ATP 50 µM
[28] = target: PIM2 (human) (UniProt Q9P1W9); details: compound 1.0 µM; ATP 5 µM
[29] = target: MAPK9 (human) (UniProt P45984); details: compound 1.0 µM; ATP 20 µM
Sequence of MAPK9 (human) (P45984 whole entry, looked up): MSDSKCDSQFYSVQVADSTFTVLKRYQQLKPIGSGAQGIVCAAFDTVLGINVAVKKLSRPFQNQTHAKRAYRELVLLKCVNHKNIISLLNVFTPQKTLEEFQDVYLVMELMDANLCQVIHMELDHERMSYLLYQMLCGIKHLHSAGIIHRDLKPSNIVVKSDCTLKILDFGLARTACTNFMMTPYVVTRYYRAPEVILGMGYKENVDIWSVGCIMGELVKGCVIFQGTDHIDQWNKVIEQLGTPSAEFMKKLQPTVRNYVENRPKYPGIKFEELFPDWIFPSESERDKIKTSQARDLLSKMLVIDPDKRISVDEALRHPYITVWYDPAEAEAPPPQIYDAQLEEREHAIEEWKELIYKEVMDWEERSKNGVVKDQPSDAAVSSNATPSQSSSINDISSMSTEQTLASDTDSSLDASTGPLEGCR

[30] = accession and sequence are those of the human protein

Sequence of PIM1 (human) (P11309 whole entry, looked up): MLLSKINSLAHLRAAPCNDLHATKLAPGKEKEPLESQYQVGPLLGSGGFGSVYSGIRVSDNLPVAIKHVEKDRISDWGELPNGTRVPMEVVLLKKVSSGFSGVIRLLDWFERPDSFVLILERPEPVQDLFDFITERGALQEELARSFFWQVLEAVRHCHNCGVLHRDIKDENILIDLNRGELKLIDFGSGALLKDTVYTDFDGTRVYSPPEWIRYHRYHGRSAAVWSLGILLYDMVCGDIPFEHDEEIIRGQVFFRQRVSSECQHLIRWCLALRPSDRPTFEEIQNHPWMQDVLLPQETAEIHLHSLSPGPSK

Row | SMILES | residual activity [2] [%] | residual activity [4] [%] | residual activity [5] [%] | residual activity [6] [%] | residual activity [7] [%] | residual activity [8] [%] | residual activity [9] [%] | residual activity [10] [%] | residual activity [11] [%] | residual activity [12] [%] | residual activity [13] [%] | residual activity [14] [%] | residual activity [16] [%] | residual activity [17] [%] | residual activity [19] [%] | residual activity [20] [%] | residual activity [21] [%] | residual activity [22] [%] | residual activity [24] [%] | residual activity [26] [%] | other results
1 | COC[C@H]1OC(=O)c2coc3c2[C@@]1(C)C1=C(C3=O)[C@@H]2CCC(=O)[C@@]2(C)C[C@H]1OC(C)=O | 94 | 87 | 74 | 85 | 113 | 81 | 64 | 80 | 87 | 69 | 75 | 88 | 86 | 97 | 86 | 90 | 98 | 96 | 97 | 125 | residual activity [1, 30]: 83%; residual activity ([3]; ATP 20 µM): 94%; residual activity [15, 30]: 88%; residual activity ([18]; ATP 5 µM): 97%; residual activity [23, 30]: 73%; residual activity ([25]; ATP 50 µM): 72%; residual activity [27]: 90%; residual activity [28]: 83%; residual activity [29]: 83%
2 | COc1ccc2c(c1)=NC1=C(C)NCCC=21 | 120 | 104 | 84 | 94 | 94 | 96 | 80 | 103 | 94 | 99 | 97 | 29 | 106 | 92 | 110 | 105 | 44 | 101 | 92 | 89 | residual activity [1]: 94%; residual activity [3]: 65%; residual activity [15]: 106%; residual activity [18]: 107%; residual activity [23]: 81%; residual activity [25]: 112%; residual activity [27]: 112%; residual activity [28]: 117%; residual activity [29]: 86%
3 | O=C1c2ccccc2-c2n[nH]c3cccc1c23 | 86 | 39 | 31 | 72 | 102 | 78 | 80 | 44 | 63 | 20 | 56 | 40 | 72 | 106 | 55 | 92 | 43 | 31 | 59 | 102 | residual activity [1, 30]: 89%; residual activity ([3]; ATP 20 µM): 15%; residual activity [15, 30]: 44%; residual activity ([18]; ATP 5 µM): 118%; residual activity [23, 30]: 68%; residual activity ([25]; ATP 50 µM): 34%; residual activity [27]: 70%; residual activity [28]: 58%; residual activity [29]: 24%
